Assay results: US5455271A, “Tight-binding inhibitors of leukotriene A4 hydrolase” (The Scripps Research Institute, priority 1993, dated 1995)
“Also recorded” adds a separate entry of the source. Counter-ions that a name gives are not always drawn. Like-named read-outs stand apart in the source and are kept apart here.

Key:
LTA4 hydrolase [1] = biological target: T1, LTA4 hydrolase (Homo sapiens, UniProt P09960); conditions: literature; cited from earlier work
T1 sequence (P09960 1-611): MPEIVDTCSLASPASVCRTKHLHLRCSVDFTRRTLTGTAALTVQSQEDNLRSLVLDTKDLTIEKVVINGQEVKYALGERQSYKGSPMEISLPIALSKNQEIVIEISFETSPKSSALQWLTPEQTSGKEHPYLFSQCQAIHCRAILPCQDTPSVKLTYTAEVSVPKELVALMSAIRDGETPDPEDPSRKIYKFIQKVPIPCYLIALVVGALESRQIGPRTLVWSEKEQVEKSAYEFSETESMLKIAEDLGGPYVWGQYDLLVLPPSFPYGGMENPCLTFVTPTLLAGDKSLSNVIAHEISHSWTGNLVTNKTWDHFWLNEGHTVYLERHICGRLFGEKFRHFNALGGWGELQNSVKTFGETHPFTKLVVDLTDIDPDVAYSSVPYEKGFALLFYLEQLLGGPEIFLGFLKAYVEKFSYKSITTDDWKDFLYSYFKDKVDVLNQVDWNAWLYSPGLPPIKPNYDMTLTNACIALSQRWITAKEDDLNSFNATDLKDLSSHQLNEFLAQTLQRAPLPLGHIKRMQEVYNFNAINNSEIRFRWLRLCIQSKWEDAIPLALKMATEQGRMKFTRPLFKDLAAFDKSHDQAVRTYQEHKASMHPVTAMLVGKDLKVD

[2] = biological target: T2, LTA4 hydrolase (epoxide hydrolase activity) (Homo sapiens, UniProt P09960); experiment: Inhibition of epoxide hydrolase activity of LTA4 hydrolase, LTA4 as substrate; type: biochemical
T2 construct: obtained from human leukocytes and was purified to apparent homogeneity; from tissue; host or cells: human leukocytes (purified to apparent homogeneity)
T2 sequence (P09960 1-611): T1 sequence (P09960 1-611)

LTA4 hydrolase [3] = biological target: T1, LTA4 hydrolase; experiment: Inhibition of LTA4 hydrolase, amidase (aminopeptidase) activity, L-alanyl p-nitroanilide as substrate; type: biochemical; parameters: LTA4 hydrolase purified from human leukocytes; from tissue; host or cells: human leukocytes (purified enzyme); conditions: for Ki: Dixon plot
Thromboxane B2 (TXB2) = experiment: Inhibition of thromboxane B2 (TXB2) in calcium ionophore A-23187-stimulated human blood; type: cell-based
Leukotriene B4 (LTB4) = experiment: Inhibition of leukotriene B4 (LTB4) in calcium ionophore A-23187-stimulated human blood; type: cell-based; conditions: Homo sapiens
[4] = biological target: cytosolic leucine aminopeptidase; experiment: Inhibition of cytosolic leucine aminopeptidase; type: biochemical
LTA4 hydrolase [5] = biological target: T1, LTA4 hydrolase; experiment: Kinetic parameters of LTA4 hydrolase-catalyzed hydrolysis of LTA4 and amide substrates; type: biochemical
Procedure: Several amino acid amides were assayed as substrates for LTA4 hydrolase. Yuan et al., Bioorg. & Med. Chem. Lett., 1:551 (1991).
^a Determined in 50 mM TrisCl, pH 7.6, in the presence of 0.1 M NaCl, […]

[6] = L-alanyl p-nitroanilide 1.5 mM, pH 8.0
[7] = Table 3, 1 μM, read-out: % Inhibition TXB2
[8] = Table 3, 3 μM, read-out: % Inhibition TXB2
[9] = Table 3, 10 μM, read-out: % Inhibition TXB2
[10] = Table 4, 10 μM, read-out: % Inhibition TXB2
[11] = Table 3, read-out: % Inhibition LTB4
[12] = Table 4, read-out: % Inhibition LTB4
[13] = L-alanyl p-nitroanilide 1.5 mM, pH 8.0, thiols with 5 mM DTT
[14] = Table 5, read-out: IC50 Epoxide Hydrolase
[15] = read-out: % Inhibition LTB4, Table 3

CC(C)C[C@H](NC(=O)[C@@H](O)[C@H](N)Cc1ccccc1)C(=O)O [Bestatin]
inhibition of LTA4 hydrolase, type of inhibition (in words) (LTA4 hydrolase [1]): reversible inhibitors

C[C@H](CS)C(=O)N1CCC[C@H]1C(=O)O [Captopril, reference compound]
IC50 [2]: 240 µM
inhibition of LTA4 hydrolase, type of inhibition (in words) (LTA4 hydrolase [1]): reversible inhibitors

COC(=O)[C@H](O)[C@@H](N)Cc1ccccc1 [Compound 1, (2R, 3S)-AHPA methyl ester]
inhibition of LTA4 hydrolase (in words) (LTA4 hydrolase [3]): poor or no inhibition

COC(=O)[C@@H](O)[C@@H](N)Cc1ccccc1 [Compound 2, (2S, 3S)-AHPA methyl ester]
Ki (LTA4 hydrolase [3]; [6]): 50 µM

COC(=O)[C@@H](O)[C@H](N)Cc1ccccc1 [Compound 3, (2S, 3R)-AHPA methyl ester]
inhibition of LTA4 hydrolase (in words) (LTA4 hydrolase [3]): poor or no inhibition; also recorded: exhibited no activity

COC(=O)[C@H](O)[C@H](N)Cc1ccccc1 [Compound 4, (2R, 3R)-AHPA methyl ester]
inhibition of LTA4 hydrolase (in words) (LTA4 hydrolase [3]): poor or no inhibition

N[C@@H](Cc1ccccc1)[C@H](O)C(=O)O [Compound 5, (2S,3S)-AHPA]
inhibition of LTA4 hydrolase (in words) (LTA4 hydrolase [3]): loss of their inhibition potency

N[C@H](Cc1ccccc1)[C@H](O)C(=O)O [Compound 6, (2S,3R)-AHPA]
inhibition of LTA4 hydrolase (in words) (LTA4 hydrolase [3]): loss of their inhibition potency

CC(C)C[C@H](NC(=O)[C@@H](O)[C@@H](N)Cc1ccccc1)C(=O)O [Compound 7, (2S, 3S)-AHPA-L-Leu]
inhibition at 1 µM (Thromboxane B2 (TXB2); [7]): 21%
inhibition at 3 µM (Thromboxane B2 (TXB2); [8]): 15%
inhibition at 10 µM (Thromboxane B2 (TXB2); [9]): 24%
inhibition at 10 µM (Thromboxane B2 (TXB2); [10]): 0%
inhibition at 3 µM (Leukotriene B4 (LTB4); [11]): 10%
inhibition at 10 µM (Leukotriene B4 (LTB4); [11]): 37%
inhibition at 10 µM (Leukotriene B4 (LTB4); [12]): 25%

N[C@@H](Cc1ccccc1)[C@H](O)C(=O)NCC(=O)O [Compound 8, (2S, 3S) -AHPA-Gly]
Ki (LTA4 hydrolase [3]; [6]): 15 µM
IC50 (LTA4 hydrolase [3]; [13]): 15 µM

N[C@H](Cc1ccccc1)[C@H](O)C(=O)NCCC(=O)O [Compound 9]
IC50 (LTA4 hydrolase [3]; [13]): 100 µM

N[C@@H](Cc1ccccc1)[C@H](O)C(=O)NCCC(=O)O [Compound 10, (2S, 3S) -AHPA-β-Ala]
inhibition at 1 µM (Thromboxane B2 (TXB2); [7]): 12%
inhibition at 3 µM (Thromboxane B2 (TXB2); [8]): 21%
inhibition at 10 µM (Thromboxane B2 (TXB2); [9]): 19%
inhibition at 1 µM (Leukotriene B4 (LTB4); [11]): 14%
inhibition at 3 µM (Leukotriene B4 (LTB4); [11]): 39%
inhibition at 10 µM (Leukotriene B4 (LTB4); [11]): 15%
IC50 (LTA4 hydrolase [3]; [13]): 80 µM

COC(=O)C(S)[C@@H](N)Cc1ccccc1 (some centres unmarked) [Compound 11]
inhibition of LTA4 hydrolase (in words) (LTA4 hydrolase [3]): poor inhibitors

COC(=O)C(S)[C@H](N)Cc1ccccc1 (some centres unmarked) [Compound 12]
inhibition of LTA4 hydrolase (in words) (LTA4 hydrolase [3]): poor inhibitors

NC(Cc1ccccc1)P(=O)(O)NCC(=O)O (centres unmarked) [Compound 16]
inhibition of LTA4 hydrolase (in words) (LTA4 hydrolase [3]): a much weaker inhibitor than Compound 8

CCOC(=O)CC(F)(F)C(=O)/C=C/c1ccccc1 [Compound 17]
inhibition of the enzyme at 1 mM concentration (in words) (LTA4 hydrolase [3]): did not inhibit the enzyme

CCOC(=O)C(F)(F)C(=O)c1nc[nH]c1C [Compound 18]
inhibition of the enzyme at 1 mM concentration (in words) (LTA4 hydrolase [3]): did not inhibit the enzyme
IC50 (LTA4 hydrolase [3]; footnote d: less than 10 percent inhibition was observed at this concentration): > 1000 µM

N[C@@H](Cc1ccccc1)[C@H](O)C(=O)OCc1ccccc1 [Compound 20]
IC50 [2, 14]: 100 µM
inhibition of LTA4 hydrolase (in words) (LTA4 hydrolase [3]): bound more tightly than the amide
IC50 (LTA4 hydrolase [3]; [13]): 0.8 µM

COC(=O)C(=O)[C@@H](N)Cc1ccccc1 [Compound 21]
inhibition at 10 µM (Thromboxane B2 (TXB2); [10]): 0%
inhibition at 10 µM (Leukotriene B4 (LTB4); [12]): 8%
inhibition of LTA4 hydrolase (in words) (LTA4 hydrolase [3]): comparable with Compound 2
IC50 (LTA4 hydrolase [3]; [13]): 80 µM

CC(C)C[C@H](NC(=O)C(=O)[C@@H](N)Cc1ccccc1)C(=O)O [Compound 22]
inhibition of LTA4 hydrolase (in words) (LTA4 hydrolase [3]): better than the corresponding α-(S)--OH derivative Compound 7
IC50 (LTA4 hydrolase [3]; [13]): 0.5 µM

COC(=O)[C@@H](O)[C@@H](N)Cc1ccc(OCc2ccccc2)cc1 [Compound 23]
IC50 (LTA4 hydrolase [3]; [13]): 20 µM

N[C@@H](Cc1ccc(OCc2ccccc2)cc1)C(=O)C(=O)OCc1ccccc1 [Compound 26]
IC50 [4]: > 100 µM
inhibition at 1 µM (Thromboxane B2 (TXB2); read-out: % Inhibition TXB2, Table 3, 1 μM): 8%
inhibition at 3 µM (Thromboxane B2 (TXB2); read-out: % Inhibition TXB2, Table 3, 3 μM): 7%
inhibition at 10 µM (Thromboxane B2 (TXB2); read-out: % Inhibition TXB2, Table 3, 10 μM): 28%
inhibition at 1 µM (Leukotriene B4 (LTB4); [15]): 15%
inhibition at 3 µM (Leukotriene B4 (LTB4); [15]): 17%
inhibition at 10 µM (Leukotriene B4 (LTB4); [15]): 24%

NC(CSSCC(N)Cc1ccc(OCc2ccccc2)cc1)Cc1ccc(OCc2ccccc2)cc1 [Compound 27a, Di-((2S)-3-[4-(benzyloxy)phenyl]-2-amino-propane)-disulphide HCl]
inhibition at 10 µM (Thromboxane B2 (TXB2); [10]): 24%
inhibition at 10 µM (Leukotriene B4 (LTB4); [12]): 100%
IC50 (Leukotriene B4 (LTB4); concentrations of about 0.3-10 μM, readout not restated, read-out: IC50 in this assay (human blood)): ~0.81 µM

N[C@@H](Cc1ccc(OCc2ccccc2)cc1)C(=O)c1cccc(C(=O)O)c1 [Compound 28]
inhibition at 10 µM (Thromboxane B2 (TXB2); [10]): 0%
inhibition at 10 µM (Leukotriene B4 (LTB4); [12]): 16%
IC50 (LTA4 hydrolase [3]; [13]): 3 µM

N[C@@H](Cc1ccc(OCc2ccccc2)cc1)C(=O)c1ccc(C(F)(F)F)cc1 [Compound 29]
IC50 [2, 14]: > 100 µM
inhibition at 10 µM (Thromboxane B2 (TXB2); [10]): 0%
IC50 (LTA4 hydrolase [3]; [13]): 10 µM

N[C@@H](Cc1ccccc1)C(=O)Cc1ccccc1 [Compound 30]
IC50 [2, 14]: > 100 µM
inhibition at 10 µM (Thromboxane B2 (TXB2); [10]): 6%
inhibition at 10 µM (Leukotriene B4 (LTB4); [12]): 15%
Ki (LTA4 hydrolase [3]; [6]): 14 µM

N[C@@H](Cc1ccccc1)[C@H](O)Cc1ccccc1 [Compound 44, (2R, 3S)-1,4-Diphenyl-2-hydroxy-3-amino-butane HCl]
IC50 (LTA4 hydrolase [3]; [13]): 140 µM

N[C@@H](Cc1ccccc1)C(=O)CCCC(=O)O [Compound 45, (6S) -5-Oxo-6-amino-7-phenyl-heptanoic acid HCl]
inhibition at 10 µM (Thromboxane B2 (TXB2); [10]): 12%
inhibition at 10 µM (Leukotriene B4 (LTB4); [12]): 11%
IC50 (LTA4 hydrolase [3]; [13]): 20 µM

N[C@@H](Cc1ccc(OCc2ccccc2)cc1)C(=O)CCCc1ccccc1 [Compound 54, (2S)-1-[4-(Benzyloxy)phenyl]-6-phenyl-2-amino-3-oxo-hexane HCl]
IC50 (LTA4 hydrolase [3]; [6]): 0.03 µM

NC[C@@H](N)Cc1ccc(OCc2ccc3ccccc3c2)cc1 [Compound 60, (2S) -3-[4-(2-Naphthylmethyloxy)phenyl]-1,2-diamino-propane HCl]
IC50 (LTA4 hydrolase [3]; [13]): 0.55 µM

C[C@@H](N)C(=O)Nc1ccc([N+](=O)[O-])cc1 [D-Ala p-nitroanilide, D-Alanine p-nitroanilide]
acceptance as substrate for LTA4 hydrolase (in words) (LTA4 hydrolase [5]): not acceptable
Vmax (LTA4 hydrolase [5]; Table 1, 50 mM TrisCl, pH 7.6, 0.1 M NaCl): 0 nmol/min/mg

C[C@H](N)C(=O)Nc1ccc([N+](=O)[O-])cc1 [L-Ala p-nitroanilide, L-alanine p-nitroanilide]
acceptance as substrate for LTA4 hydrolase (in words) (LTA4 hydrolase [5]): the best

CCCCCCCC\C=C/C=C/C=C/[C@@H]1O[C@H]1CCCC(=O)O [LTA3]
inhibition of LTA4 hydrolase, type of inhibition (in words) (LTA4 hydrolase [1]): irreversibly inhibited

CC/C=C\C/C=C\C\C=C/C=C/C=C/[C@@H]1O[C@H]1CCCC(=O)O [LTA5]
inhibition of LTA4 hydrolase, type of inhibition (in words) (LTA4 hydrolase [1]): irreversibly inhibited

COC(=O)[C@@H](O)[C@H](Cc1ccccc1)NC(=O)OC(C)(C)C [N-Boc-2S, 3S)-AHPA methyl ester, N-Boc-(2S, 3S) -AHPA methyl ester]
inhibition of LTA4 hydrolase (in words) (LTA4 hydrolase [3]): no inhibition activity
